Experimental data published in patent publication US11629171B2, “Beta-hairpin peptidomimetics” (POLYPHOR AG, priority 2017, dated 2023).
Converted amounts (≈) assume the structure as drawn. Where a SMILES comes first, the peptide text is derived from it. Bridges are numbered along the chain shown (N, C = ends). Roman numbers before positions name the chains, in order. [ ]: non-standard residue; d: D form. aThr = C[C@H](O)[C@H](N)C(=O)O; Pen = CC(C)(S)[C@H](N)C(=O)O; d(hSer) = N[C@H](CCO)C(=O)O; dDab = NCC[C@@H](N)C(=O)O; hSer = N[C@@H](CCO)C(=O)O; Dab = NCC[C@H](N)C(=O)O; Abu = CC[C@H](N)C(=O)O; Dap = NC[C@H](N)C(=O)O

Legend:
[1] = test system: Acinetobacter baumannii 872842; format: cell-based; conditions: 872842
Summary of the method: (§1)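 Two-fold peptide dilutions in polysorbate 80-containing (0.002% final) cation-adjusted Mueller-Hinton II broth were inoculated with about 10^6 CFU/mL. The MIC was taken as the lowest concentration, in μg/mL, preventing visible growth at 18-20 hours and 35° C.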

[2] = test system: Acinetobacter baumannii DSM 30008; format: cell-based; conditions: DSM 30008
Summary of the method: as §1

[3] = test system: Enterobacter cloacae 848840; format: cell-based; conditions: 848840
Summary of the method: as §1

[4] = test system: Escherichia coli 926415; format: cell-based; conditions: 926415
Summary of the method: as §1

[5] = test system: Escherichia coli ATCC 25922; format: cell-based; conditions: ATCC 25922
Summary of the method: as §1

[6] = test system: Klebsiella pneumoniae 968733; format: cell-based; conditions: 968733
Summary of the method: as §1

[7] = test system: Klebsiella pneumoniae SSI #3010; format: cell-based; conditions: SSI #3010
Summary of the method: as §1

[8] = test system: Pseudomonas aeruginosa ATCC 27853; format: cell-based; conditions: ATCC 27853
Summary of the method: as §1

[9] = test system: human red blood cells (hRBC); test: Hemolysis; format: cell-based; conditions: red cells of human, 1 h, 200
Summary of the method: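 Hemoglobin release from PBS-washed hRBC at 20% (v/v), incubated 1 h at 37° C with peptides at 200 μg/mL, is measured at 540 nm. Values are blank corrected and given as a fraction of Triton X-100 lysis × 100%.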

[10] = test system: male ICR mice; test: Tolerability in a mouse model (Maximum Tolerated Dose assay); format: in vivo; conditions: groups of 3
Summary of the method: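 Groups of 3 male ICR mice weighing 23±3 g received two subcutaneous doses, 12 h apart, of 30 or 40 mg/kg in saline adjusted to pH 6.5-7.6. Observation for 30 min after each dose covered autonomic effects and acute toxicity, including death.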

[11] = 2 × 30 mg/kg s.c. at a 12-hr interval
[12] = 2 × 40 mg/kg s.c. at a 12-hr interval

Structure (SMILES) | MIC [1] [µg/mL] | MIC [2] [µg/mL] | MIC [3] [µg/mL] | MIC [4] [µg/mL] | MIC [5] [µg/mL] | MIC [6] [µg/mL] | MIC [7] [µg/mL] | MIC [8] [µg/mL] | Hemolysis at 200 μg/mL [9] [%] | Mortality and dose [10, 11] | Acinetobacter baumannii DSM 30008 MIC [2] [µg/mL] | Escherichia coli ATCC 25922 MIC [5] [µg/mL] | Klebsiella pneumoniae SSI #3010 MIC [7] [µg/mL] | Pseudomonas aeruginosa ATCC 27853 MIC [8] [µg/mL] | Mortality and dose [10, 12]
CC[C@@H]1NC(=O)[C@@H](CC(C)C)NC(=O)[C@H](CCN)NC(=O)[C@@H](NC(=O)[C@H](CN)NC(=O)[C@@H](NC(=O)[C@H](CCN)NC(=O)CC[C@@H]2NC(=O)[C@@H](NC(=O)[C@H](Cc3ccc(O)cc3)NC(=O)[C@@H](NC(=O)[C@@H](NC(C)=O)C(C)C)[C@@H](C)O)CSSC(C)(C)[C@@H](C(=O)N[C@H](C(=O)N[C@H](C(=O)N[C@H](C(N)=O)[C@@H](C)O)[C@@H](C)O)C(C)C)NC(=O)[C@H](Cc3c[nH]c4ccccc34)NC(=O)[C@H](CCN)NC(=O)[C@@H](CCN)NC2=O)[C@@H](C)O)CCNC(=O)[C@H]([C@@H](C)O)NC(=O)[C@H](CCN)NC(=O)[C@H](CCN)NC1=O [Ex. 266] (I: Ac-VTYCE[dDab][Dab]W[Pen]VTT-NH2 / II: [Dab]T[Dap][Dab][Dab][dL][Abu][Dab][Dab]T; disulfide I:4-I:9; amide I:5-II:N; lactam II:4-II:C) | 0.5 (≈ 0.205 µM) | 0.0625 (≈ 0.0256 µM) | 0.25 (≈ 0.102 µM) | 0.5 (≈ 0.205 µM) | 0.03125 (≈ 0.0128 µM) | 1 (≈ 0.41 µM) | 0.0625 (≈ 0.0256 µM) | 0.125 (≈ 0.0512 µM) | 1 | 0/3 died at 2 × 30 mg/kg | – | – | – | – | –
CC(=O)N[C@H](C(=O)N[C@H]1CSSC[C@@H](C(=O)N[C@@H](CO)C(N)=O)NC(=O)[C@H](C(C)C)NC(=O)[C@H]([C@H](C)O)NC(=O)[C@H](Cc2c[nH]c3ccccc23)NC(=O)[C@H](CO)NC(=O)[C@@H](CCN)NC(=O)[C@H](CCC(=O)N[C@@H](CCN)C(=O)N[C@H](C(=O)N[C@@H](CN)C(=O)N[C@H]2CCNC(=O)[C@H]([C@@H](C)O)NC(=O)[C@H](CCN)NC(=O)[C@H](CCN)NC(=O)[C@H](CC(C)C)NC(=O)[C@@H](CC(C)C)NC(=O)[C@H](CCN)NC2=O)[C@@H](C)O)NC(=O)[C@H](CCN)NC(=O)[C@H](Cc2ccc(O)cc2)NC1=O)C(C)C [Ex. 306] (I: Ac-VCY[Dab]E[dDab]SW[aThr]VCS-NH2 / II: [Dab]T[Dap][Dab][Dab][dL]L[Dab][Dab]T; disulfide I:2-I:11; amide I:5-II:N; lactam II:4-II:C) | 0.0625 (≈ 0.0259 µM) | – | 0.0625 (≈ 0.0259 µM) | 0.0625 (≈ 0.0259 µM) | – | 0.125 (≈ 0.0518 µM) | – | – | <1 | – | 0.0625 | 0.03125 | 0.0625 | 0.0625 | 0/3 died at 2 × 40 mg/kg
CC(=O)N[C@H](C(=O)N[C@H]1CSSC[C@@H](C(=O)N[C@@H](CO)C(N)=O)NC(=O)[C@H](C(C)C)NC(=O)[C@H](CO)NC(=O)[C@H](Cc2c[nH]c3ccccc23)NC(=O)[C@H](CCO)NC(=O)[C@@H](CCN)NC(=O)[C@H](CCC(=O)N[C@@H](CCN)C(=O)N[C@H](C(=O)N[C@@H](CCN)C(=O)N[C@H]2CCNC(=O)[C@H]([C@@H](C)O)NC(=O)[C@H](CCN)NC(=O)[C@H](CCN)NC(=O)[C@H](CC(C)C)NC(=O)[C@@H](CC(C)C)NC(=O)[C@H](CCN)NC2=O)[C@@H](C)O)NC(=O)[C@H](CCN)NC(=O)[C@H](Cc2ccc(O)cc2)NC1=O)C(C)C [Ex. 41] (I: Ac-VCY[Dab]E[dDab][hSer]WSVCS-NH2 / II: [Dab]T[Dab][Dab][Dab][dL]L[Dab][Dab]T; disulfide I:2-I:11; amide I:5-II:N; lactam II:4-II:C) | 0.125 (≈ 0.0515 µM) | 0.0625 (≈ 0.0258 µM) | 0.25 (≈ 0.103 µM) | 0.25 (≈ 0.103 µM) | 0.0625 (≈ 0.0258 µM) | 0.125 (≈ 0.0515 µM) | 0.125 (≈ 0.0515 µM) | 0.25 (≈ 0.103 µM) | <1 | 0/3 died at 2 × 30 mg/kg | – | – | – | – | –
CC[C@@H]1NC(=O)[C@H](CCN)NC(=O)[C@H](Cc2ccc(O)cc2)NC(=O)[C@@H](NC(=O)[C@@H](NC(C)=O)C(C)C)CSSC[C@@H](C(=O)N[C@@H](CO)C(N)=O)NC(=O)[C@H](C(C)C)NC(=O)[C@H](CO)NC(=O)[C@H](Cc2c[nH]c3ccccc23)NC(=O)[C@H](CCC(=O)N[C@@H](CCN)C(=O)N[C@H](C(=O)N[C@@H](CN)C(=O)N[C@H]2CCNC(=O)[C@H]([C@@H](C)O)NC(=O)[C@H](CCN)NC(=O)[C@H](CCN)NC(=O)[C@H](CC(C)C)NC(=O)[C@@H](CC(C)C)NC(=O)[C@H](CCN)NC2=O)[C@@H](C)O)NC(=O)[C@@H](CCN)NC1=O [Ex. 363] (I: Ac-VCY[Dab][Abu][dDab]EWSVCS-NH2 / II: [Dab]T[Dap][Dab][Dab][dL]L[Dab][Dab]T; disulfide I:2-I:11; amide I:7-II:N; lactam II:4-II:C) | 0.0625 (≈ 0.0261 µM) | – | 0.0625 (≈ 0.0261 µM) | 0.125 (≈ 0.0522 µM) | – | 0.125 (≈ 0.0522 µM) | – | – | 2 | – | 0.0625 | 0.0625 | 0.0625 | 0.125 | 0/3 died at 2 × 40 mg/kg
CC[C@@H]1NC(=O)[C@@H](CC(C)C)NC(=O)[C@H](CCN)NC(=O)[C@@H](NC(=O)[C@H](CN)NC(=O)[C@@H](NC(=O)[C@H](CCN)NC(=O)CC[C@@H]2NC(=O)CNC(=O)[C@H](Cc3ccc(O)cc3)NC(=O)[C@@H](NC(=O)[C@@H](NC(C)=O)C(C)C)CSSC[C@@H](C(=O)N[C@@H](CO)C(N)=O)NC(=O)[C@H](C(C)C)NC(=O)[C@H](CCN)NC(=O)[C@H](Cc3c[nH]c4ccccc34)NC(=O)[C@H](CCN)NC(=O)[C@@H](CCO)NC2=O)[C@@H](C)O)CCNC(=O)[C@H]([C@@H](C)O)NC(=O)[C@H](CCN)NC(=O)[C@H](CCN)NC1=O [Ex. 298] (I: Ac-VCYGE[d(hSer)][Dab]W[Dab]VCS-NH2 / II: [Dab]T[Dap][Dab][Dab][dL][Abu][Dab][Dab]T; disulfide I:2-I:11; amide I:5-II:N; lactam II:4-II:C) | 0.25 (≈ 0.106 µM) | 0.0625 (≈ 0.0265 µM) | 0.25 (≈ 0.106 µM) | 0.5 (≈ 0.212 µM) | 0.03125 (≈ 0.0133 µM) | 1 (≈ 0.425 µM) | 0.0625 (≈ 0.0265 µM) | 0.25 (≈ 0.106 µM) | <1 | – | – | – | – | – | 0/3 died at 2 × 40 mg/kg
CC(=O)N[C@H](C(=O)N[C@H]1CSSC[C@@H](C(=O)N[C@@H](CO)C(N)=O)NC(=O)[C@H](C(C)C)NC(=O)[C@H](CO)NC(=O)[C@H](Cc2c[nH]c3ccccc23)NC(=O)[C@H](CCN)NC(=O)[C@@H](CO)NC(=O)[C@H](CCC(=O)N[C@@H](CCN)C(=O)N[C@H](C(=O)N[C@@H](CN)C(=O)N[C@H]2CCNC(=O)[C@H]([C@@H](C)O)NC(=O)[C@H](CCN)NC(=O)[C@H](CCN)NC(=O)[C@H](CC(C)C)NC(=O)[C@@H](CC(C)C)NC(=O)[C@H](CCN)NC2=O)[C@@H](C)O)NC(=O)[C@H](CCN)NC(=O)[C@H](Cc2ccc(O)cc2)NC1=O)C(C)C [Ex. 297] (I: Ac-VCY[Dab]E[dS][Dab]WSVCS-NH2 / II: [Dab]T[Dap][Dab][Dab][dL]L[Dab][Dab]T; disulfide I:2-I:11; amide I:5-II:N; lactam II:4-II:C) | 0.0625 (≈ 0.0261 µM) | 0.03125 (≈ 0.013 µM) | 0.125 (≈ 0.0521 µM) | 0.125 (≈ 0.0521 µM) | 0.03125 (≈ 0.013 µM) | 0.125 (≈ 0.0521 µM) | 0.0625 (≈ 0.0261 µM) | 0.125 (≈ 0.0521 µM) | <1 | – | – | – | – | – | 0/3 died at 2 × 40 mg/kg
